ChEMBL document CHEMBL6078611, “A potent GPX4 degrader to induce ferroptosis in HT1080 cells” (Eur J Med Chem, 2024)
Activity calls are given as the source filed them. The rule behind the calls is not given here.

Columns and labels:
[1] = molecular target: T1, Baculoviral IAP repeat-containing protein 2/Phospholipid hydroperoxide glutathione peroxidase GPX4 (Homo sapiens, UniProt Q13490+P36969); test: Protac activity at cIAP/GPX4 in human HT-1080 cells assessed as degradation of GPX4 at 10 uM incubated for 48 hrs by Western blot analysis relative to control; type: cell-based
Target sequence in this assay (P36969 whole entry, looked up): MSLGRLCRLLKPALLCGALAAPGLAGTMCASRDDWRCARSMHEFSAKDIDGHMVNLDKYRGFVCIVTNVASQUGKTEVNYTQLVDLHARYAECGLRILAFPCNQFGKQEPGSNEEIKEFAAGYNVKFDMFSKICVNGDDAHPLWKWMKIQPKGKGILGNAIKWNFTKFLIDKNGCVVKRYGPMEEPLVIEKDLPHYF
Target sequence in this assay (Q13490 whole entry, looked up): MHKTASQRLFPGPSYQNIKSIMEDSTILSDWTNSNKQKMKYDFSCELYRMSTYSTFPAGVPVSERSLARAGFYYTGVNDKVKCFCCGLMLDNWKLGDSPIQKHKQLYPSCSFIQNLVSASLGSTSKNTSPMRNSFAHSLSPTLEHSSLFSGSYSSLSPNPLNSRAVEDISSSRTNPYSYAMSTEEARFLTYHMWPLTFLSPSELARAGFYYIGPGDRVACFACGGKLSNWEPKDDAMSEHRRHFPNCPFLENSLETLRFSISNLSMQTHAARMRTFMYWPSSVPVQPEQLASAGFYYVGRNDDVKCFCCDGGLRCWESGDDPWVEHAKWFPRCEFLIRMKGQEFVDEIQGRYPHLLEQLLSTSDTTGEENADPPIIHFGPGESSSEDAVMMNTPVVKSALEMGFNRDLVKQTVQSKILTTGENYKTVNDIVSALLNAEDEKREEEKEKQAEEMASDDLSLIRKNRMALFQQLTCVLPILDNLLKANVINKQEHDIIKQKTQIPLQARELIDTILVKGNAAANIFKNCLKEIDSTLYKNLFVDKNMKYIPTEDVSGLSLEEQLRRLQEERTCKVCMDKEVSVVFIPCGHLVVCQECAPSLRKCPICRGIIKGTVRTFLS

[2] = molecular target: T1, Baculoviral IAP repeat-containing protein 2/Phospholipid hydroperoxide glutathione peroxidase GPX4; test: Protac activity at cIAP/GPX4 in human HT-1080 cells assessed as degradation of GPX4 incubated for 48 hrs by Western blot analysis; type: cell-based
Target sequence in this assay (Q13490 whole entry): as the sequence (Q13490 whole entry, looked up) above
Target sequence in this assay (P36969 whole entry): as the sequence (P36969 whole entry, looked up) above

HT-1080 [3] = test: Antiproliferative activity against human HT-1080 cells assessed as reduction in cell viability incubated for 48 hrs by CCK-8 assay; type: functional, cell-based; settings: HT-1080, 48 h
[4] = Cytotoxicity against HEK293T cells assessed as reduction in cell viability incubated for 48 hrs by CCK-8 assay; type: toxicity, cell-based, HEK-293T; settings: human
[5] = molecular target: T1, Baculoviral IAP repeat-containing protein 2/Phospholipid hydroperoxide glutathione peroxidase GPX4; test: Protac activity at cIAP/GPX4 in human HT-1080 cells assessed as degradation of GPX4 at 3 uM incubated for 4 hrs by Western blot analysis; type: cell-based
Target sequence in this assay (P36969 whole entry, looked up): as above
Target sequence in this assay (Q13490 whole entry, looked up): as the sequence (Q13490 whole entry, looked up) above

HT-1080 [6] = test: Protac activity at MDM2/GPX4 in human HT-1080 cells assessed as degradation of GPX4 at 10 uM by Western blot analysis relative to control; type: cell-based
[7] = molecular target: T1, Baculoviral IAP repeat-containing protein 2/Phospholipid hydroperoxide glutathione peroxidase GPX4; test: Protac activity at cIAP/GPX4 in human HT-1080 cells assessed as degradation of GPX4 at 5 uM by Western blot analysis; type: cell-based; settings: time 12-72 hrs
Target sequence in this assay (P36969 whole entry, looked up): as the sequence (P36969 whole entry, looked up) above
Target sequence in this assay (Q13490 whole entry, looked up): as the sequence (Q13490 whole entry, looked up) above

[8] = molecular target: T1, Baculoviral IAP repeat-containing protein 2/Phospholipid hydroperoxide glutathione peroxidase GPX4; test: Protac activity at cIAP/GPX4 in human HT-1080 cells assessed as degradation of GPX4 at 5 uM measured upto 12 hrs after compound washout by Western blot analysis; type: cell-based
Target sequence in this assay (P36969 whole entry, looked up): as the sequence (P36969 whole entry, looked up) above
Target sequence in this assay (Q13490 whole entry, looked up): as the sequence (Q13490 whole entry, looked up) above

[9] = molecular target: T1, Baculoviral IAP repeat-containing protein 2/Phospholipid hydroperoxide glutathione peroxidase GPX4; test: Protac activity at cIAP/GPX4 in human HT-1080 cells assessed as degradation of GPX4 at 5 uM preincubated with MG132 for 4 hrs followed by compound addition and measured after 48 hrs by Western blot analysis; type: cell-based
Target sequence in this assay (P36969 whole entry, looked up): as the sequence (P36969 whole entry, looked up) above
Target sequence in this assay (Q13490 whole entry, looked up): as the sequence (Q13490 whole entry, looked up) above

[10] = molecular target: T1, Baculoviral IAP repeat-containing protein 2/Phospholipid hydroperoxide glutathione peroxidase GPX4; test: Protac activity at cIAP/GPX4 in human HT-1080 cells assessed as degradation of GPX4 at 5 uM preincubated with chloroquine for 4 hrs followed by compound addition and measured after 48 hrs by Western blot analysis; type: cell-based
Target sequence in this assay (P36969 whole entry, looked up): as the sequence (P36969 whole entry, looked up) above
Target sequence in this assay (Q13490 whole entry, looked up): as the sequence (Q13490 whole entry, looked up) above

[11] = molecular target: T1, Baculoviral IAP repeat-containing protein 2/Phospholipid hydroperoxide glutathione peroxidase GPX4; test: Protac activity at cIAP/GPX4 in human HT-1080 cells assessed as degradation of GPX4 at 5 uM preincubated with MLN4924 for 4 hrs followed by compound addition and measured after 48 hrs by Western blot analysis; type: cell-based
[12] = molecular target: T1, Baculoviral IAP repeat-containing protein 2/Phospholipid hydroperoxide glutathione peroxidase GPX4; test: Protac activity at cIAP/GPX4 in human HT-1080 cells assessed as degradation of GPX4 at 5 uM preincubated with RSL3 for 4 hrs followed by compound addition and measured after 48 hrs by Western blot analysis; type: cell-based
[13] = molecular target: T1, Baculoviral IAP repeat-containing protein 2/Phospholipid hydroperoxide glutathione peroxidase GPX4; test: Protac activity at cIAP/GPX4 in human HT-1080 cells assessed as degradation of GPX4 at 5 uM preincubated with cIAP ligand B4 for 4 hrs followed by compound addition and measured after 48 hrs by Western blot analysis; type: cell-based
HT-1080 [14] = test: Antiproliferative activity against human HT-1080 cells assessed as reduction in cell viability at 7.5 uM incubated for 48 hrs in presence of Fer-1 by CCK-8 assay; type: functional, cell-based
HT-1080 [15] = test: Antiproliferative activity against human HT-1080 cells assessed as reduction in cell viability at 7.5 uM incubated for 48 hrs in presence of DFOM by CCK-8 assay; type: functional, cell-based
HT-1080 [16] = test: Antiproliferative activity against human HT-1080 cells assessed as reduction in cell viability at 7.5 uM incubated for 48 hrs in presence of NAC by CCK-8 assay; type: functional, cell-based
HT-1080 [17] = test: Synergistic antiproliferative activity against human HT-1080 cells assessed as induction of cell death at 3.75 uM incubated for 48 hrs in presence of FeCl2 by CCK-8 assay; type: functional, cell-based
HT-1080 [18] = test: Antiproliferative activity against human HT-1080 cells assessed as induction of cell death incubated for 48 hrs in presence of Z-VAD-FMK by CCK-8 assay; type: functional, cell-based
HT-1080 [19] = test: Induction of ferroptosis in human HT-1080 cells assessed as lipid peroxide accumulation by BODIPY 581/591C11 staining based analysis; type: functional, cell-based; settings: dose 0.6-10 µM
HT-1080 [20] = test: Induction of ferroptosis in human HT-1080 cells assessed as lipid peroxide accumulation at 10 uM in presence of Fer-1 by BODIPY 581/591C11 staining based analysis; type: functional, cell-based
HT-1080 [21] = test: Induction of ferroptosis in human HT-1080 cells assessed as lipid peroxide accumulation at 10 uM in presence of DFOM by BODIPY 581/591C11 staining based analysis; type: functional, cell-based
HT-1080 [22] = test: Induction of ferroptosis in human HT-1080 cells assessed as lipid peroxide accumulation at 10 uM in presence of FeCl2 by BODIPY 581/591C11 staining based analysis; type: functional, cell-based
HT-1080 [23] = test: Induction of ferroptosis in human HT-1080 cells assessed as lipid peroxide accumulation at 10 uM in presence of NAC by BODIPY 581/591C11 staining based analysis; type: functional, cell-based
Mitochondrial membrane [24] = test: Induction of mitochondrial membrane potential loss in human HT-1080 cells incubated for 48 hrs by JC-1 staining based flow cytometry analysis; type: cell membranes; settings: dose 0.6-10 µM
Mitochondrial membrane [25] = test: Induction of mitochondrial membrane potential loss in human HT-1080 cells at 10 uM incubated for 48 hrs in presence of DFOM by JC-1 staining based flow cytometry analysis; type: cell membranes
Mitochondrial membrane [26] = test: Induction of mitochondrial membrane potential loss in human HT-1080 cells at 10 uM incubated for 48 hrs in presence of NAC by JC-1 staining based flow cytometry analysis; type: cell membranes
HEK-293T = test: Cytotoxicity against HEK293T cells assessed as reduction in cell viability at 40 uM incubated for 48 hrs by CCK-8 assay; type: toxicity, cell-based; settings: human

**Q.** For `COC(=O)c1ccc([C@H]2c3[nH]c4ccccc4c3C[C@H](C(=O)NCc3cn(CCCCCC(=O)N[C@H](Cc4ccccc4)[C@H](O)C(=O)N[C@@H](CC(C)C)C(=O)OC)nn3)N2C(=O)CCl)cc1`, which Emax [1] is on record?
**A.** 75%

**Q.** What about the DC50 [2] of the same compound?
**A.** 4.22 µM

**Q.** Which IC50 (HT-1080 [3]) does the source give for `COC(=O)c1ccc([C@H]2c3[nH]c4ccccc4c3C[C@H](C(=O)OC)N2C(=O)CCl)cc1` here?
**A.** 1.55 µM

**Q.** What about the IC50 at 48 h [4] of the same compound?
**A.** 10.8 µM

**Q.** What about the Activity [5] of the same compound?
**A.** inactive

**Q.** For `COC(=O)[C@H]1Cc2c([nH]c3ccccc23)[C@H](c2ccc(C(=O)NCc3cn(CCOCCNC(=O)CN4CCN(C(=O)N5C(c6ccc(OC)cc6OC(C)C)=N[C@H](c6ccc(Cl)cc6)[C@@H]5c5ccc(Cl)cc5)CC4=O)nn3)cc2)N1C(=O)CCl`, which Activity (HT-1080 [6]) is on record?
**A.** 60%

**Q.** Which results are given for `COC(=O)[C@H](CC(C)C)NC(=O)[C@@H](O)[C@@H](Cc1ccccc1)NC(=O)CCCCCCCn1cc(CNC(=O)c2ccc([C@H]3c4[nH]c5ccccc5c4C[C@H](C(=O)OC)N3C(=O)CCl)cc2)nn1`?
**A.** IC50 (HT-1080 [3]): 2.37 µM; Emax [1]: 85%; DC50 [2]: 1.68 µM; Activity [7]: Time-dependent-effect; Activity [8]: Active; Activity [9]: inactive; Activity [10]: inactive; Activity [11]: inactive; Activity [12]: inactive; Activity [13]: inactive; Activity (HT-1080 [14]): inactive; Activity (HT-1080 [15]): inactive; Activity (HT-1080 [16]): inactive; Activity (HT-1080 [17]): Active; Activity (HT-1080 [18]): Active; Activity (HT-1080 [19]): Dose-dependent-effect; Activity (HT-1080 [20]): inactive; Activity (HT-1080 [21]): inactive; Activity (HT-1080 [22]): inactive; Activity (HT-1080 [23]): inactive; Activity (Mitochondrial membrane [24]): Dose-dependent-effect; Activity (Mitochondrial membrane [25]): inactive; Activity (Mitochondrial membrane [26]): inactive; Activity (HEK-293T): Toxic
